≈ marks a conversion by molar mass, not a printed value. Like-named read-outs stand apart in the source and are kept apart here.
Key:
NCI-H322M = assay: cells; details: Homo sapiens, 48 h
U251 = assay: SRB cytotoxicity screening assay (CNS Cancer)
UACC-62 = assay: SRB cytotoxicity screening assay (Melanoma)
OVCAR-5 = assay: SRB cytotoxicity screening assay (Ovarian)
SNB-19 = assay: SRB cytotoxicity screening assay (CNS Cancer)
26 cell lines = assay: 26 cell line growth inhibition screen, sulforhodamine stain; assay type: cell-based; details: 26 cell lines, 48 hour drug treatment, sulforhodamine stain
786-0 = assay: SRB cytotoxicity screening assay (Renal Cancer)
HL-60(TB) = assay: cells; details: Homo sapiens, HL-60, 48 h, read-out: Log10 GI50 (converted)
SF-539 = assay: SRB cytotoxicity screening assay (CNS Cancer); details: Homo sapiens, SF-539, 48 h, read-out: Log10 GI50 (converted)
PC-3 = assay: SRB cytotoxicity screening assay (Prostate Cancer)
NCI-H522 = assay: SRB cytotoxicity screening assay (Non-Small Cell Lung Cancer); details: NCI-H522 (Non-Small Cell Lung Cancer); PG=0; 48 hour incubation
OVCAR-4 = assay: SRB cytotoxicity screening assay (Ovarian)
A498 = assay: SRB cytotoxicity screening assay (Renal Cancer); details: Homo sapiens, A498, 48 h
HCC-2998 = assay: SRB cytotoxicity screening assay (Colon Cancer); details: HCC-2998 (Colon Cancer); PG=0; 48 hour incubation
K-562 = assay: SRB cytotoxicity screening assay (Leukemia)
OVCAR-6 = assay: SRB cytotoxicity screening assay (Ovarian); details: 48 h
KM12 = assay: SRB cytotoxicity screening assay (Colon Cancer)
MCF7/ADR-RES = assay: SRB cytotoxicity screening assay (Breast Cancer)
HT29 = assay: SRB cytotoxicity screening assay (Colon Cancer); details: Homo sapiens, HT-29, 48 h, read-out: Log10 LC50 (converted)
OVCAR-3 = assay: SRB cytotoxicity screening assay (Ovarian)
EKVX = assay: SRB cytotoxicity screening assay (Non-Small Cell Lung Cancer); details: Homo sapiens, EKVX, 48 h, read-out: Log10 LC50 (converted)
M14 = assay: SRB cytotoxicity screening assay (Melanoma)
SW-620 = assay: SRB cytotoxicity screening assay (Colon Cancer)
CCRF-CEM = assay: SRB cytotoxicity screening assay (Leukemia); details: for Log10 TGI: CCRF-CEM (Leukemia), PG=0, 48 hour incubation
NCI-H226 = assay: SRB cytotoxicity screening assay (Non-Small Cell Lung Cancer); details: Homo sapiens, NCI-H226, 48 h, read-out: Log10 LC50 (converted)
[1] = read-out: Log10 GI50 (converted)
[2] = read-out: Log10 LC50 (converted)

For `CC(=O)O[C@H]1C(=O)[C@@]2(C)[C@H]([C@H](OC(=O)c3ccccc3)[C@]3(O)C[C@H](OC(=O)[C@H](O)[C@@H](NC(=O)c4ccccc4)c4ccccc4)C(C)=C1C3(C)C)[C@]1(OC(C)=O)CO[C@@H]1C[C@@H]2O` [Paclitaxel, paclitaxel, reference compound], the GI50 (NCI-H322M; [1]) was 0.0759 nM, the CC50 (NCI-H322M; [2]) was greater than 100000 nM and the GI50 (U251; Homo sapiens, U-251, 48 h, read-out: Log10 GI50 (converted)) was 0.00513 nM. The “Log10 TGI” value (U251; U251 (CNS Cancer), PG=0, 48 hour incubation) was −4.32 molar, the GI50 (UACC-62; Homo sapiens, UACC-62, 48 h, read-out: Log10 GI50 (converted)) was 0.0347 nM and the “Log10 TGI” value (UACC-62; UACC-62 (Melanoma), PG=0, 48 hour incubation) was −4.71 molar. The GI50 (OVCAR-5; Homo sapiens, OVCAR-5, 48 h, read-out: Log10 GI50 (converted)) was 0.417 nM, the CC50 (OVCAR-5; Homo sapiens, OVCAR-5, 48 h, read-out: Log10 LC50 (converted)) was greater than 100000 nM and the “Log10 TGI” value (OVCAR-5; OVCAR-5 (Ovarian), PG=0, 48 hour incubation) was −4.92 molar. For the same compound, the GI50 (SNB-19; Homo sapiens, SNB-19, 48 h, read-out: Log10 GI50 (converted)) was 1.05 nM, the CC50 (SNB-19; Homo sapiens, SNB-19, 48 h, read-out: Log10 LC50 (converted)) was greater than 100000 nM and the “Log10 TGI” value (SNB-19; SNB-19 (CNS Cancer), PG=0, 48 hour incubation) was greater than −4.00 molar. For the same compound, the IC50 (26 cell lines; read-out: Mean IC50 (26 cell line Mean Growth inhibition IC50 value)) was 0.02 µg/mL (≈ 0.0234 µM), the IC50 (26 cell lines; read-out: Min IC50 (lowest observed IC50 value in 26 cell line screen)) was 0.001 µg/mL (≈ 0.00117 µM) and the “Log10 TGI” value (786-0; 786-0 (Renal Cancer), PG=0, 48 hour incubation) was greater than −4.00 molar. It also gave a GI50 (786-0; Homo sapiens, 786-0, 48 h, read-out: Log10 GI50 (converted)) of 9.77 nM, a CC50 (786-0; Homo sapiens, 786-0, 48 h, read-out: Log10 LC50 (converted)) greater than 100000 nM and a GI50 (HL-60(TB)) of 0.00269 nM. It also gave a GI50 (SF-539) of 0.00813 nM, a GI50 (PC-3; Homo sapiens, PC-3, 48 h, read-out: Log10 GI50 (converted)) of 0.0141 nM and a CC50 (PC-3; Homo sapiens, PC-3, 48 h, read-out: Log10 LC50 (converted)) greater than 100000 nM. For the same compound, the “Log10 TGI” value (PC-3; PC-3 (Prostate Cancer), PG=0, 48 hour incubation) was greater than −4.00 molar, the “Log10 TGI” value (NCI-H522) was −11.20 molar and the GI50 (OVCAR-4; Homo sapiens, OVCAR-4, 48 h, read-out: Log10 GI50 (converted)) was 1580 nM. For the same compound, the “Log10 TGI” value (OVCAR-4; OVCAR-4 (Ovarian), PG=0, 48 hour incubation) was −4.19 molar, the GI50 (A498; [1]) was 72.4 nM and the CC50 (A498; [2]) was 74100 nM. The “Log10 TGI” value (HCC-2998) was −4.77 molar, the GI50 (K-562; Homo sapiens, K562, 48 h, read-out: Log10 GI50 (converted)) was 0.0148 nM and the CC50 (K-562; Homo sapiens, K562, 48 h, read-out: Log10 LC50 (converted)) was greater than 100000 nM. The “Log10 TGI” value (K-562; K-562 (Leukemia), PG=0, 48 hour incubation) was greater than −4.00 molar, the GI50 (OVCAR-6; [1]) was 0.0178 nM and the CC50 (OVCAR-6; [2]) was greater than 100000 nM. The GI50 (KM12; Homo sapiens, KM12, 48 h, read-out: Log10 GI50 (converted)) was 0.00372 nM, the “Log10 TGI” value (KM12; KM12 (Colon Cancer), PG=0, 48 hour incubation) was −4.36 molar and the GI50 (MCF7/ADR-RES; Homo sapiens, MCF7, 48 h, read-out: Log10 GI50 (converted)) was 3.31 nM. For the same compound, the CC50 (MCF7/ADR-RES; Homo sapiens, MCF7, 48 h, read-out: Log10 LC50 (converted)) was greater than 100000 nM, the “Log10 TGI” value (MCF7/ADR-RES; MCF7/ADR-RES (Breast Cancer), PG=0, 48 hour incubation) was greater than −4.00 molar and the CC50 (HT29) was 33100 nM. The GI50 (OVCAR-3; Homo sapiens, OVCAR-3, 48 h, read-out: Log10 GI50 (converted)) was 0.0398 nM, the “Log10 TGI” value (OVCAR-3; OVCAR-3 (Ovarian), PG=0, 48 hour incubation) was −4.55 molar and the CC50 (EKVX) was greater than 100000 nM. For the same compound, the GI50 (M14; Homo sapiens, M14, 48 h, read-out: Log10 GI50 (converted)) was 0.00186 nM, the “Log10 TGI” value (M14; M14 (Melanoma), PG=0, 48 hour incubation) was −4.62 molar and the GI50 (SW-620; Homo sapiens, SW-620, 48 h, read-out: Log10 GI50 (converted)) was 0.00251 nM. For the same compound, the “Log10 TGI” value (SW-620; SW-620 (Colon Cancer), PG=0, 48 hour incubation) was greater than −4.00 molar, the “Log10 TGI” value (CCRF-CEM) was greater than −4.00 molar and the “Log10 TGI” value (CCRF-CEM; listed as paclitaxel) was “greater than −4.00 molar”. It also gave a GI50 (CCRF-CEM; Homo sapiens, CCRF-CEM, 48 h, read-out: Log10 GI50 (converted)) of 0.00245 nM and a CC50 (NCI-H226) greater than 100000 nM.
